Data reported in patent US8017792B2, “1-thio-D-glucitol derivatives” (Taisho Pharmaceutical Co., Ltd., priority 2005, dated 2011).
Where a name gives a salt, the structure may show the parent alone.

Assays:
[1] = target: T1, Human SGLT2 (Homo sapiens, UniProt P31639); assay: Sodium-dependent sugar uptake inhibition test in CHO-K1 cells stably expressing human SGLT2 (Test Example 2); format: cell-based; settings: for IC50: CHO-K1 cells, [14C]methyl-α-D-glucopyranoside 1 mM, 37° C., one hour; for SGLT1/SGLT2: ratio of IC50 human SGLT1 to IC50 human SGLT2
T1 construct: expressed in transfected cells; host or cells: CHO-K1
T1 sequence (P31639 1-672): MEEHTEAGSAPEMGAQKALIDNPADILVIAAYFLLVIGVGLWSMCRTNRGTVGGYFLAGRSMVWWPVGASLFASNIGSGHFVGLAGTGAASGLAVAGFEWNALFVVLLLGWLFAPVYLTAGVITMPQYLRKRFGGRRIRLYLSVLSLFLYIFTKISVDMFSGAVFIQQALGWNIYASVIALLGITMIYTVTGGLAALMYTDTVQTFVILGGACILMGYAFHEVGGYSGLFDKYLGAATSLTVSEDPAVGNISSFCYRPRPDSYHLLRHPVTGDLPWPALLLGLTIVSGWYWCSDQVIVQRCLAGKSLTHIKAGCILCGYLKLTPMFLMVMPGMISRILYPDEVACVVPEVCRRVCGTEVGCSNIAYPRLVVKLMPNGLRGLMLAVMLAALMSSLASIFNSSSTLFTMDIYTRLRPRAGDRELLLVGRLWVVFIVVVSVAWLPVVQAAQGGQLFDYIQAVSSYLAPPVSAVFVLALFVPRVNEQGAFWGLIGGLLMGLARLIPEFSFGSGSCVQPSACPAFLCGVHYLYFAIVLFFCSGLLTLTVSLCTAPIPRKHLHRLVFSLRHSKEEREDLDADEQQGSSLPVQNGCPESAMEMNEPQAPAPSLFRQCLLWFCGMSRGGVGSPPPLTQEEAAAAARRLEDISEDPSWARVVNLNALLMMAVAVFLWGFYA
Experimental: (§1) Human SGLT1 sequence (NM_000343) was reverse-transcripted from human small intestinal mRNA, then amplified, and then introduced into pCMV-tag5A from Stratagene Corporation. Human SGLT2 sequence (NM_003041) was prepared from human nephric mRNA as with the above method, and then introduced into pcDNA3.1+hygro from Invitrogen Corporation. Each cloned sequence was confirmed to be identical with the reported sequence.
(§2) CHO-K1 cells were transfected with the human SGLT1 and human SGLT2 expression vectors using Lipofectamine 2000 (Invitrogen Corporation). SGLT expression cells were cultured in the presence of geneticin (SGLT1) or hygromycin B (SGLT2) of the concentration of 500 μg/mL to select resistant strains. Cells were obtained using sugar uptake specific activity as an index in the following system.
(§3) Cells stably expressing human SGLT1 and human SGLT2 were used in the sodium-dependent sugar uptake activity inhibition test. Cells were incubated in 1 mL of a pretreatment buffer solution (140 mM choline chloride, 2 mM KCl, 1 mM CaCl2, 1 mM MgCl2, 10 mM HEPES/5 mM Tris, pH 7.4) for 20 minutes. The pretreatment buffer solution was removed and 200 μL of an uptake buffer containing test compounds (methyl-α-D-glucopyranoside containing [^14C]methyl-α-D-glucopyranoside (0.1 mM for SGLT1 inhibition, 1 mM for SGLT2 inhibition), 140 mM NaCl, 2 mM KCl, 1 mM CaCl2, 1 mM MgCl2, 10 mM HEPES/5 mM Tris, pH 7.4) were added, and uptake reaction was performed at 37° C. for 30 minutes (SGLT1) or for one hour (SGLT2). After the reaction, cells were washed with 1 mL of a washing buffer (10 mM methyl-α-D-glucopyranoside, 140 mM choline chloride, 2 mM KCl, 1 mM CaCl2, 1 mM MgCl2, 10 mM HEPES/5 mM Tris, pH 7.4) twice and dissolved in 400 μL of 0.2 M NaOH solution. After Aquazole 2 (Perkin Elmer Corporation) was added and mixed well, radioactivity was measured with a liquid scintillation counter (Beckman Coulter Corporation). A buffer for uptake which contained no test compound was prepared as a control group. Another buffer solution for uptake containing choline chloride in place of NaCl was also prepared for basic uptake.

[2] = target: T2, Human SGLT1 (Homo sapiens, UniProt P13866); assay: Sodium-dependent sugar uptake inhibition test in CHO-K1 cells stably expressing human SGLT1 (Test Example 2); format: cell-based; settings: [14C]methyl-α-D-glucopyranoside 0.1 mM, 37° C., 30 minutes
T2 construct: expressed in transfected cells; host or cells: CHO-K1
T2 sequence (P13866 1-664): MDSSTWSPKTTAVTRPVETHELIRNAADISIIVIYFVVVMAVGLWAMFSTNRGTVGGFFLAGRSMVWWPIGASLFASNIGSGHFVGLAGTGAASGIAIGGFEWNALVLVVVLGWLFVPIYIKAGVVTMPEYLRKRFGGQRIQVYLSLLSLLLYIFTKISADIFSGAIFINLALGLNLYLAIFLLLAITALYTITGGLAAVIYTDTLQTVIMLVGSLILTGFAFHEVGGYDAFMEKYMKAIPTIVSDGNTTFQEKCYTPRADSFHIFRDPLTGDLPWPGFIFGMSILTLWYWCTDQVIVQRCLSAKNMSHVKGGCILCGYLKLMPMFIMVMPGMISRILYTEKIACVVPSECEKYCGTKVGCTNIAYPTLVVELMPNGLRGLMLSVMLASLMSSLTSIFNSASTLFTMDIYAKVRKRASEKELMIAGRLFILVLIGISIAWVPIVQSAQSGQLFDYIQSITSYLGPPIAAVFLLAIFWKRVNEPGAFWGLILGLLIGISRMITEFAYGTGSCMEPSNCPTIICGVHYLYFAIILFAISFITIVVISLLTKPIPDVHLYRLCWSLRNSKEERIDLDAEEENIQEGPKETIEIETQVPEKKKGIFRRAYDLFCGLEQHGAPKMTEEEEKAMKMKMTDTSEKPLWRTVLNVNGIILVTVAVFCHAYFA
Experimental: as §1, §2, §3

Compound	melting point	IC50 [1]	SGLT1/SGLT2 [1]	IC50 [2]
CCOc1ccc(Cc2cc([C@@H]3S[C@H](CO)[C@@H](O)[C@H](O)[C@H]3O)c(O)cc2O)cc1 [Compound 100, (1S)-1,5-Anhydro-1-[3-(4-ethoxybenzyl)-4,6-dihydroxyphenyl]-1-thio-D-glucitol]	186 to 190 °C	1520 nM	2.9	4400 nM
CCc1ccc(Cc2cccc([C@@H]3S[C@H](COCc4ccccc4)[C@@H](OCc4ccccc4)[C@H](OCc4ccccc4)[C@H]3OCc3ccccc3)c2)cc1 [Compound 1, (1S)-1,5-anhydro-2,3,4,6-tetra-O-benzyl-1-[3-(4-ethylbenzyl)phenyl]-1-thio-D-glucitol]	100 to 102.5 °C			
OC[C@H]1S[C@@H](c2cccc(Cc3cc4ccccc4s3)c2)[C@H](O)[C@@H](O)[C@@H]1O [Compound 129, (1S)-1,5-Anhydro-1-[3-[(1-benzothien-2-yl)methyl]-phenyl]-1-thio-D-glucitol]	159.5 to 160 °C	3000 nM	4.3	12800 nM
COc1ccc([C@@H]2S[C@H](COCc3ccccc3)[C@@H](OCc3ccccc3)[C@H](OCc3ccccc3)[C@H]2OCc2ccccc2)cc1Cc1cc2ccccc2s1 [Compound 56]	133 to 135 °C			
CCOc1ccc(Cc2cc([C@@H]3S[C@H](CO)[C@@H](O)[C@H](O)[C@H]3O)c(OC)cc2Cl)cc1 (as salt: Na) [Compound 99, (1S)-1,5-anhydro-1-[4-chloro-5-(4-ethoxybenzyl)-2-methoxyphenyl]-1-thio-D-glucitol]	177 to 179 °C			
COc1ccc(Cc2cc3ccccc3s2)cc1[C@@H]1S[C@H](CO)[C@@H](O)[C@H](O)[C@H]1O [Compound 130, (1S)-1,5-Anhydro-1-[3-[(1-benzothien-2-yl)methyl]-6-methoxyphenyl]-1-thio-D-glucitol]	97.5 to 98 °C	2120 nM		> 10000 nM
Clc1ccc([C@@H]2S[C@H](COCc3ccccc3)[C@@H](OCc3ccccc3)[C@H](OCc3ccccc3)[C@H]2OCc2ccccc2)cc1Cc1cc2ccccc2s1 [Compound 57]	140 to 143 °C			
CCOc1ccc(Cc2cc([C@@H]3S[C@H](COCc4ccccc4)[C@@H](OCc4ccccc4)[C@H](OCc4ccccc4)[C@H]3OCc3ccccc3)ccc2Cl)cc1 [Compound 3]	126 to 128 °C			

Next, values leading:

melting point	IC50 [1]	SGLT1/SGLT2 [1]	IC50 [2]	Compound
79 to 82 °C	1270 nM	4.8	6100 nM	CCOc1ccc(Cc2cc([C@@H]3S[C@H](CO)[C@@H](O)[C@H](O)[C@H]3O)ccc2Cl)cc1Cl [Compound 85, (1S)-1,5-Anhydro-1-[4-chloro-3-(3-chloro-4-ethoxybenzyl)phenyl]-1-thio-D-glucitol]
73 to 81 °C	170 nM	12.5	2100 nM	CCOc1ccc(Cc2cc([C@@H]3S[C@H](CO)[C@@H](O)[C@H](O)[C@H]3O)ccc2Cl)cc1F [Compound 84, (1S)-1,5-Anhydro-1-[4-chloro-3-(3-fluoro-4-ethoxybenzyl)phenyl]-1-thio-D-glucitol]
72 to 76 °C	30 nM	48.7	1500 nM	CCOc1cc(F)c(Cc2cc([C@@H]3S[C@H](CO)[C@@H](O)[C@H](O)[C@H]3O)ccc2Cl)cc1F [Compound 83, (1S)-1,5-Anhydro-1-[4-chloro-3-(2,5-difluoro-4-ethoxybenzyl)phenyl]-1-thio-D-glucitol]
	60 nM	18.3	1100 nM	CCOc1ccc(Cc2cc([C@@H]3S[C@H](CO)[C@@H](O)[C@H](O)[C@H]3O)ccc2C)cc1 [Compound 86, (1S)-1,5-Anhydro-1-[3-(4-ethoxybenzyl)-4-methylphenyl]-1-thio-D-glucitol]
	110 nM	15.5	1700 nM	CCOc1ccc(Cc2cc([C@@H]3S[C@H](CO)[C@@H](O)[C@H](O)[C@H]3O)ccc2Cl)c(F)c1 [Compound 91, (1S)-1,5-Anhydro-1-[4-chloro-3-(2-fluoro-4-ethoxybenzyl)phenyl]-1-thio-D-glucitol]
	69 nM	347.9	23900 nM	COc1cc(Cl)c(Cc2ccc(C(C)C)cc2)cc1[C@@H]1S[C@H](CO)[C@@H](O)[C@H](O)[C@H]1O [Compound 103, (1S)-1,5-Anhydro-1-[4-chloro-3-(4-isopropylbenzyl)-6-methoxyphenyl]-1-thio-D-glucitol]
	600 nM	10.9	6500 nM	CCOc1ccc(Cc2cc([C@@H]3S[C@H](CO)[C@@H](O)[C@H](O)[C@H]3O)ccc2F)cc1 [Compound 81, (1S)-1,5-Anhydro-1-[3-(4-ethoxybenzyl)-4-fluorophenyl]-1-thio-D-glucitol]
	15 nM	6.5	100 nM	CCOc1ccc(Cc2cc([C@@H]3S[C@H](CO)[C@@H](O)[C@H](O)[C@H]3O)c(O)cc2C)cc1 [Compound 98, (1S)-1,5-Anhydro-1-[3-(4-ethoxybenzyl)-6-hydroxy-4-methylphenyl]-1-thio-D-glucitol]
	21 nM	21.0	400 nM	CSc1ccc(Cc2cc([C@@H]3S[C@H](CO)[C@@H](O)[C@H](O)[C@H]3O)ccc2Cl)cc1 [Compound 93, (1S)-1,5-Anhydro-1-[4-chloro-3-(4-methylthiobenzyl)phenyl]-1-thio-D-glucitol]
